Source: ChEMBL document CHEMBL5543109, “Novel β-Hairpin Antimicrobial Peptide Containing the β-Turn Sequence of -NG- and the Tryptophan Zippers Facilitate Self-Assembly into Nanofibers, Exhibiting Excellent Antimicrobial Performance” (J Med Chem, 2024)
In brackets after ≈: the same amount, converted by molar mass. Activity calls are given as the source filed them. The rule behind the calls is not given here.

Assays:
[1] = tested on: Staphylococcus epidermidis; experiment: Antibacterial activity against Staphylococcus epidermidis ATCC 12228 incubated for 18 hrs by broth microdilution method; format: functional
[2] = Self-assembly property of compound in 50% TFE assessed as beta-sheet content; format: physicochemical
[3] = tested on: Pseudomonas aeruginosa; experiment: Antibacterial activity against Pseudomonas aeruginosa ATCC 27853 incubated for 18 hrs by broth microdilution method; format: functional
[4] = tested on: Bacillus subtilis; experiment: Bactericidal activity against Bacillus subtilis ATCC 23857 incubated for 18 hrs by broth microdilution method; format: functional
[5] = tested on: Klebsiella pneumoniae; experiment: Antibacterial activity against Klebsiella pneumoniae ATCC 700603 incubated for 18 hrs by broth microdilution method; format: functional
[6] = Self-assembly property of compound in PBS assessed as beta-sheet content; format: physicochemical; conditions: buffer
[7] = tested on: Staphylococcus aureus; experiment: Antibacterial activity against Staphylococcus aureus at 2 times MIC preincubated for 1 hr with trypsin followed by enzyme inactivation and bacterial addition and measured after 18 hrs; format: functional; conditions: time 19 hrs
[8] = Retention time of the compound; format: physicochemical
[9] = Self-assembly property of compound in water assessed as beta-sheet content; format: physicochemical
[10] = tested on: Staphylococcus aureus; experiment: Antibacterial activity against Staphylococcus aureus at 2 times MIC preincubated for 1 hr with chymotrypsin followed by enzyme inactivation and bacterial addition and measured after 18 hrs; format: functional; conditions: time 19 hrs
[11] = tested on: Klebsiella pneumoniae; experiment: Bactericidal activity against Klebsiella pneumoniae ATCC 700603 incubated for 18 hrs by broth microdilution method; format: functional
[12] = tested on: Escherichia coli; experiment: Bactericidal activity against Escherichia coli ATCC 25922 incubated for 18 hrs by broth microdilution method; format: functional
[13] = tested on: Staphylococcus aureus; experiment: Bactericidal activity against Staphylococcus aureus ATCC 25923 incubated for 18 hrs by broth microdilution method; format: functional
[14] = tested on: Bacillus subtilis; experiment: Antibacterial activity against Bacillus subtilis ATCC 23857 incubated for 18 hrs by broth microdilution method; format: functional
[15] = tested on: Staphylococcus epidermidis; experiment: Bactericidal activity against Staphylococcus epidermidis ATCC 12228 incubated for 18 hrs by broth microdilution method; format: functional
[16] = tested on: Staphylococcus aureus; experiment: Antibacterial activity against Staphylococcus aureus ATCC 25923 incubated for 18 hrs by broth microdilution method; format: functional
[17] = tested on: Escherichia coli; experiment: Antibacterial activity against Escherichia coli ATCC 25922 incubated for 18 hrs by broth microdilution method; format: functional
[18] = tested on: Pseudomonas aeruginosa; experiment: Bactericidal activity against Pseudomonas aeruginosa ATCC 27853 incubated for 18 hrs by broth microdilution method; format: functional
[19] = tested on: Erythrocyte; experiment: Hemolytic activity in mouse erythrocytes assessed as concentration required to cause 10% hemolysis incubated for 1 hr; format: toxicity, cell-based
[20] = tested on: Pseudomonas aeruginosa; experiment: Drug resistance against Pseudomonas aeruginosa assessed as fold increase in MIC after 40 consecutive days of passages by sequential passaging method; format: functional; conditions: time 18 hrs
[21] = tested on: Staphylococcus aureus; experiment: Antibacterial activity against Staphylococcus aureus S125 incubated for 18 hrs by broth microdilution method; format: functional
[22] = tested on: Escherichia coli; experiment: Antibacterial activity against rifampicin resistant Escherichia coli incubated for 18 hrs by broth microdilution method; format: functional
[23] = tested on: Staphylococcus aureus; experiment: Antibacterial activity against methicillin resistant Staphylococcus aureus incubated for 18 hrs by broth microdilution method; format: functional
[24] = tested on: Escherichia coli; experiment: Antibacterial activity against Escherichia coli incubated for 18 hrs by broth microdilution method; format: functional
[25] = tested on: Staphylococcus aureus; experiment: Antibacterial activity against Staphylococcus aureus infected in BALB/c mouse systemic infection model assessed as reduction in lung bacterial load at 10 mg/kg, ip measured after 8 hrs; format: functional, organism-based
[26] = tested on: Escherichia coli; experiment: Antibacterial activity against kanamycin resistant Escherichia coli incubated for 18 hrs by broth microdilution method; format: functional
[27] = tested on: Staphylococcus aureus; experiment: Antibacterial activity against Staphylococcus aureus infected in BALB/c mouse systemic infection model assessed as reduction in spleen bacterial load at 10 mg/kg, ip measured after 8 hrs; format: functional, organism-based
[28] = tested on: Staphylococcus aureus; experiment: Antibacterial activity against Staphylococcus aureus S794 incubated for 18 hrs by broth microdilution method; format: functional
[29] = tested on: Staphylococcus aureus; experiment: Antibacterial activity against Staphylococcus aureus incubated for 18 hrs by broth microdilution method; format: functional
[30] = tested on: Staphylococcus aureus; experiment: Antibacterial activity against rifampicin resistant Staphylococcus aureus incubated for 18 hrs by broth microdilution method; format: functional
[31] = tested on: Staphylococcus aureus; experiment: Antibacterial activity against methicillin resistant Staphylococcus aureus 113 incubated for 18 hrs by broth microdilution method; format: functional
[32] = tested on: Staphylococcus aureus; experiment: Antibacterial activity against kanamycin resistant Staphylococcus aureus incubated for 18 hrs by broth microdilution method; format: functional
[33] = tested on: Staphylococcus aureus; experiment: Antibacterial activity against Staphylococcus aureus infected in BALB/c mouse systemic infection model assessed as reduction in kidney bacterial load at 10 mg/kg, ip measured after 8 hrs; format: functional, organism-based
[34] = tested on: Staphylococcus aureus; experiment: Antibacterial activity against Staphylococcus aureus infected in BALB/c mouse systemic infection model assessed as reduction in liver bacterial load at 10 mg/kg, ip measured after 8 hrs; format: functional, organism-based
[35] = tested on: Staphylococcus aureus; experiment: Antibacterial activity against methicillin resistant Staphylococcus aureus 75 incubated for 18 hrs by broth microdilution method; format: functional
[36] = Self-assembly property of compound in PBS assessed as beta-sheet nanofibers formation incubated for 1 hr by Thioflavin T based fluorescence spectrophotometer analysis; format: physicochemical; conditions: buffer, dose 0.5-1.5 µM

Row | Structure (SMILES) | MIC [1] [µM] | MIC [3] [µM] | MBC [4] [µM] | MIC [5] [µM] | Activity [7] [%] | Retention_time [8] [min] | Activity [10] [%] | MBC [11] [µM] | MBC [12] [µM] | MBC [13] [µM] | MIC [14] [µM] | MBC [15] [µM] | MIC [16] [µM] | MIC [17] [µM] | MBC [18] [µM] | MHC [19] [µM] | other results
1 | NCCCC[C@@H](NC(=O)[C@H](N)Cc1c[nH]c2ccccc12)C(=O)N[C@H](Cc1c[nH]c2ccccc12)C(=O)N[C@H](CCCCN)C(=O)N[C@H](Cc1c[nH]c2ccccc12)C(=O)N1CCC[C@@H]1C(=O)NCC(=O)N[C@H](Cc1c[nH]c2ccccc12)C(=O)N[C@H](CCCCN)C(=O)N[C@H](Cc1c[nH]c2ccccc12)C(=O)N[C@H](CCCCN)C(=O)N[C@H](Cc1c[nH]c2ccccc12)C(N)=O | 4 (≈ 7.2 µg/mL) | 4 (≈ 7.2 µg/mL) | 2 (≈ 3.6 µg/mL) | 8 (≈ 14.4 µg/mL) | 100 | 14.321 | 100 | 8 (≈ 14.4 µg/mL) | 4 (≈ 7.2 µg/mL) | 8 (≈ 14.4 µg/mL) | 2 (≈ 3.6 µg/mL) | 8 (≈ 14.4 µg/mL) | 4 (≈ 7.2 µg/mL) | 4 (≈ 7.2 µg/mL) | 32 (≈ 57.6 µg/mL) | 147.6 | Activity [2]: 50%; Activity [6]: 44.2%; Activity [9]: 30.5%
2 | O=C(O)c1cn(C2CC2)c2cc(N3CCNCC3)c(F)cc2c1=O [CIPROFLOXACIN] | 8 (≈ 2.65 µg/mL) | 2 (≈ 0.663 µg/mL) |  | 8 (≈ 2.65 µg/mL) |  |  |  |  |  |  | 2 (≈ 0.663 µg/mL) |  | 8 (≈ 2.65 µg/mL) | < 1 |  |  | fold change (FC) [20]: 128; MIC [21]: 8 µM (≈ 2.65 µg/mL); MIC [22]: 0.5 µM (≈ 0.166 µg/mL); MIC [23]: 256 µM (≈ 84.8 µg/mL); MIC [24]: 0.5 µM (≈ 0.166 µg/mL); Activity [25]: Active; MIC [26]: 2 µM (≈ 0.663 µg/mL); Activity [27]: inactive; MIC [28]: 256 µM (≈ 84.8 µg/mL); MIC [29]: 8 µM (≈ 2.65 µg/mL); MIC [30]: 0.5 µM (≈ 0.166 µg/mL); MIC [31]: 16 µM (≈ 5.3 µg/mL); MIC [32]: 4 µM (≈ 1.33 µg/mL); Activity [33]: Active; Activity [34]: Active; MIC [35]: 256 µM (≈ 84.8 µg/mL)
3 | NCCCC[C@@H](NC(=O)[C@H](N)Cc1c[nH]c2ccccc12)C(=O)N[C@H](Cc1c[nH]c2ccccc12)C(=O)N[C@H](CCCCN)C(=O)N[C@H](Cc1c[nH]c2ccccc12)C(=O)NCC(=O)NCC(=O)N[C@H](Cc1c[nH]c2ccccc12)C(=O)N[C@H](CCCCN)C(=O)N[C@H](Cc1c[nH]c2ccccc12)C(=O)N[C@H](CCCCN)C(=O)N[C@H](Cc1c[nH]c2ccccc12)C(N)=O | 4 (≈ 7.04 µg/mL) | 4 (≈ 7.04 µg/mL) | 8 (≈ 14.1 µg/mL) | 8 (≈ 14.1 µg/mL) | 100 | 14.321 | 100 | 8 (≈ 14.1 µg/mL) | 8 (≈ 14.1 µg/mL) | 4 (≈ 7.04 µg/mL) | 2 (≈ 3.52 µg/mL) | 4 (≈ 7.04 µg/mL) | 4 (≈ 7.04 µg/mL) | 8 (≈ 14.1 µg/mL) | 32 (≈ 56.4 µg/mL) | 66.3 | Activity [36]: Not Active
